# Test results as given in patent publication US5872139A, “Heterocyclymethylamino derivatives of cyclobutene-3,4-diones” (American Home Products Corporation, priority 1997, dated 1999).
# Tested on: Isolated Rat Bladder Strips
# Experiment: Inhibition of contractions in isolated rat bladder strips (KCl-stimulated)
# Assay type: cell-based, Sprague-Dawley rats
# Details: 30 μM, 15 mM KCl, read-out: Percent inhibition (I) at 30 μM
# Description: The smooth muscle relaxing activity of the compounds of this invention was established in accordance with standard pharmaceutically accepted test procedures with representative compounds as follows:
# Sprague-Dawley rats (150-200 g) are rendered unconscious by CO2 asphyxiation and then euthanized by cervical dislocation. The bladder is removed into warm (37 deg. C.) physiological salt solution (PSS) of the following composition (mM): NaCl, 118.4; KCl, 4.7; CaCl2, 2.5; […]; NaHCO3, 24.9; KH2 PO4, 1.2; glucose, 11.1; EDTA, 0.023; gassed with […]; pH 7.4. The bladder is opened and then cut into strips 1-2 mm in width and 7-10 mm in length. The strips are subsequently suspended in a 10 mL tissue bath under an initial resting tension of 1.5 g. The strips are held in place by two surgical clips one of which is attached to a fixed hook while the other is attached to an isometric force transducer. […] The carbachol is then washed out and the tissue allowed to relax to its resting level of activity. Following a further 30 min period of recovery an additional 15 mM KCl are introduced into the tissue bath. This increase in KCl concentration results in a large increase in the amplitude of spontaneous contractions (and initiation of contractions in previously quiescent strips) superimposed upon a small increase in basal tone. Following stabilization of this enhanced level of contractile activity, incremental increases in the concentration of test compound or vehicle are introduced into the tissue bath. Contractile activity is measured for each compound or vehicle concentration during the last minute of a 30 minute challenge.
# The isometric force developed by the bladder strips is measured using a […] to elicit 50% inhibition of pre-drug contractile activity (IC50 concentration) and is calculated from this concentration-response curve.
row,Compound,inhibition at 30 µM [%]
1,"CC(C)(Cc1ccccc1)Nc1c(NCc2cc3cc(C#N)ccc3o2)c(=O)c1=O [Example 14, 2-{[2-(1,1-Dimethyl-2-phenyl-ethylamino)-3,4-dioxo-cyclobut-1-enylamino]-methyl}-benzofuran-5-carbonitrile]",31.9 ± 6.4
2,"CC(C)(C)Nc1c(NCc2cc3cc(C#N)ccc3o2)c(=O)c1=O [Example 13, 2-[(2-tert-butylamino-3,4-dioxo-cyclobut-1-enylamino)-methyl]-benzofuran-5-carbonitrile]",19.9 ± 8.5
3,"C[C@@H](Nc1c(NCc2cc3cc(C#N)ccc3o2)c(=O)c1=O)C(C)(C)C [Example 12, 2-{[3,4-Dioxo-2-(1,2,2-trimethyl-propylamino)-cyclobut-1-enylamino]-methyl}-benzofuran-5-carbonitrile]",5.5 ± 4
4,"CC(C)N(C)c1c(NCc2ccncc2)c(=O)c1=O [Example 7, 3-(Isopropyl-methyl-amino)-4-[(pyridin-4-ylmethyl)-amino]-cyclobut-3-ene-1,2-dione]",27.3 ± 7
5,"CCC(C)(C)Nc1c(NCc2cc3cc([N+](=O)[O-])ccc3o2)c(=O)c1=O [Example 9, 3-(1,1-Dimethyl-propylamino)-4-[(5-nitro-benzofuran-2-ylmethyl)-amino]-cyclobut-3-ene-1,2-dione]",22.2 ± 7.4
6,"CC(C)(C)Nc1c(NCc2cc3cc([N+](=O)[O-])ccc3o2)c(=O)c1=O [Example 10, 3-tert-butylamino-4-[(5-nitro-benzofuran-2-ylmethyl)-amino]-cyclobut-3-ene-1,2-dione]",11.5 ± 3.2

# Same assay, conditions: 0.5 h, 30 μM, 15 mM KCl, read-out: Percent contraction (C) at 30 μM
row,Compound,activity at 30 µM [%]
1,"C[C@@H](Nc1c(NCc2cc3cc([N+](=O)[O-])ccc3o2)c(=O)c1=O)C(C)(C)C [Example 8, 3-[(5-nitro-benzofuran-2-ylmethyl)-amino]-4-(1,2,2-trimethylpropylamino)-cyclobut-3-ene-1,2-dione]",8.5 ± 1.4

# Same assay, conditions: 0.5 h, 15 mM KCl, 30 minute challenge
row,Compound,IC50 [nM]
1,"CC(C)(C)Nc1c(NCc2cccnc2)c(=O)c1=O [Example 5, 3-tert-Butylamino-4-[(pyridin-3-ylmethyl)amino]-cyclobut-3-ene-1,2-dione]",2630 ± 220
2,"CCC(C)(C)Nc1c(NCc2cc3cc(C#N)ccc3o2)c(=O)c1=O [Example 11, 2-{[2-(1,1-Dimethyl-propylamino)-3,4-dioxo-cyclobut-1-enylamino]-methyl}-benzofuran-5-carbonitrile]",1560 ± 160
3,"CCC(C)(C)Nc1c(NCc2ccncc2)c(=O)c1=O [Example 1, 3-(1,1-Dimethylpropylamino)-4-[(pyridin-4-ylmethyl)-amino]-cyclobut-3-ene-1,2-dione]",420 ± 60
4,"CC(C)(C)Nc1c(NCc2ccccn2)c(=O)c1=O [Example 6, 3-tert-Butylamino-4-[(pyridin-2-ylmethyl)amino]-cyclobut-3-ene-1,2-dione]",11400 ± 4300
5,"CC(C)(C)Nc1c(NCc2ccncc2)c(=O)c1=O [Example 4, 3-tert-Butylamino-4-[(pyridin-4-ylmethyl)amino]-cyclobut-3-ene-1,2-dione]",3000 ± 200
6,"CCC(C)(C)Nc1c(NCc2ccccn2)c(=O)c1=O [Example 3, 3-(1,1-Dimethylpropylamino)-4-[(pyridin-2-ylmethyl)amino]-cyclobut-3-ene-1,2-dione]",1250 ± 340
7,"C[C@@H](Nc1c(NCc2cc3cc(C#N)ccc3o2)c(=O)c1=O)C(C)(C)C [Example 12, 2-{[3,4-Dioxo-2-(1,2,2-trimethyl-propylamino)-cyclobut-1-enylamino]-methyl}-benzofuran-5-carbonitrile]",3750 ± 1440
8,"CC(Nc1c(NCc2ccncc2)c(=O)c1=O)C(C)(C)C (stereo not drawn) [Example 15, 3-[(Pyridin-4-ylmethyl)-amino]-4-(1,2,2-trimethyl-propylamino)-cyclobut-3-ene-1,2-dione]",2450 ± 990
9,"CCC(C)(C)Nc1c(NCc2oc3ccc(C#N)cc3c2Cl)c(=O)c1=O [Example 16, 2-{[2-(1,1-Dimethyl-propylamino)-3,4-dioxo-cyclobut-1-enylamino]-methyl}-3-chloro-benzofuran-5-carbonitrile]",1300 ± 630
10,CCC(C)(C)Nc1c(NCc2cccnc2)c(=O)c1=O [Example 2],1250 ± 390

# Tested on: hypertrophied bladder (detrussor) smooth muscle
# Experiment: Inhibition of spontaneous contractions in vivo, hypertrophied rat bladder model (conscious rats, cystometry)
# Design: species or system female Sprague-Dawley rats
# Details: 10 mg/kg p.o., 3 animals, conscious female rats, second cystometry one hour after dosing
# Method: In addition, we tested the ability of the compound of Example 1, as representative of the other compounds of this invention, to inhibit the hyperactivity of hypertrophied bladder (detrussor) smooth muscle in conscious female rats with hypertrophied bladders and thereby alleviate urinary incontinence according to the protocol described by Malmgrem et al., J. Urol. 142:1134, 1989.
# Female Sprague-Dawley rats, ranging in weight from 190-210 g are used. Up to 25 animals are prepared each time. After development of bladder hypertrophy 4-8 animals are used per test.
# Compounds are dissolved in PEG-200 and administered by gastric gavage or intraveneously in a volume of 5 ml/kg. For primary screening all drugs are administered at the arbitrary dose of 10 mg/kg p.o. to groups of 4 rats.
# The animals are anesthetized with halothane. […]
# The following urodynamic variables are recorded:
# The mean value of each variable is calculated before and after compound administration. For each compound the changes in the variables measured are compared to the values obtained before treatment and expressed as percent inhibition. The data are also subjected to 2-way analysis of variance to determine significant (p<0.05) changes in the variable measured.
row,Compound,% Red (F): percent reduction in the total number of spontaneous contractions in the hypertrophied rat bladder model [%]
1,"CCC(C)(C)Nc1c(NCc2ccncc2)c(=O)c1=O [Example 1, 3-(1,1-Dimethylpropylamino)-4-[(pyridin-4-ylmethyl)-amino]-cyclobut-3-ene-1,2-dione]",-8 ± 4
